Publication PMC7541927 (Preventive Nutrition and Food Science, 2020)

Target: T1, α-amylase from porcine pancreas (Sus scrofa, UniProt P00690)
T1 sequence (P00690 16-511): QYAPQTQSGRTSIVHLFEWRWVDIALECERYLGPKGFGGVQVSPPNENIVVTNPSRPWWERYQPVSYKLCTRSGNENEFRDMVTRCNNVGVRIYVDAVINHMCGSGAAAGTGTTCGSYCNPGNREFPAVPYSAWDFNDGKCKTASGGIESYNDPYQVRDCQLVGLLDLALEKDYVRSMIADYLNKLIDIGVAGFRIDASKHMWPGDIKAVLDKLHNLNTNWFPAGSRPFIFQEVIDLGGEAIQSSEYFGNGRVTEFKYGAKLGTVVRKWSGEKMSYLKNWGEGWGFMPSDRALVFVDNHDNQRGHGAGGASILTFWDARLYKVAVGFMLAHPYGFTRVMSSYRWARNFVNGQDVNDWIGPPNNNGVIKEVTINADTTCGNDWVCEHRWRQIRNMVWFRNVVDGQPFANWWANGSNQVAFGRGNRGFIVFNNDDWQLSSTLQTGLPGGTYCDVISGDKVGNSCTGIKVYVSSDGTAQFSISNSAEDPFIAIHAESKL
Assay: biochemical

`O=C(O)CC(O)(CC(=O)O)C(=O)O` [citric acid] was tested, and the IC50 was 640 ± 40 µM.
